From patent publication US7863449B2, “Modulators of muscarinic receptors” (Vertex Pharmaceuticals Incorporated, priority 2004, dated 2011) come the findings set out here.

Assay [1] has as its target T1, M1 muscarinic receptor (Homo sapiens, UniProt P11229).
T1 construct: expressed in transfected cells; host or cells: CHO (M1-CHO)
T1 sequence (P11229 1-460): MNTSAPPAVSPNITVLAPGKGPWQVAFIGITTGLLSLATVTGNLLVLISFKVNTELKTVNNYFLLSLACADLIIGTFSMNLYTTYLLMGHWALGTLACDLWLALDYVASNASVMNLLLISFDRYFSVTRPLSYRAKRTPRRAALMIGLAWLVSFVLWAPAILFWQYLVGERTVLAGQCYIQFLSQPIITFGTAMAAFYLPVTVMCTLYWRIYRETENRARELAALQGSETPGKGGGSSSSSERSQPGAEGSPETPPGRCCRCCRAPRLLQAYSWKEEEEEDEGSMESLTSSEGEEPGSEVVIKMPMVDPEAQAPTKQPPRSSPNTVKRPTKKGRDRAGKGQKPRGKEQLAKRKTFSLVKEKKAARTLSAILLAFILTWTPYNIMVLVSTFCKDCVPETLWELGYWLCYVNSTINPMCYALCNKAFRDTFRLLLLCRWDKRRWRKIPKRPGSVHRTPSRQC
Nature of the assay: Functional mobilization of intracellular calcium (FLIPR), M1-CHO cells. In kind it is cell-based. As to conditions: for Emax: 100% efficacy is the maximum response obtained using Carbachol as a control; for M1 Activity: M1-CHO cells, FLIPR calcium mobilization. In a few lines:
(§1)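 CHO cells expressing M1 or M4, loaded with Fluo-3 AM or Calcium 3 dye with 1 mM probenecid, 0.5% DMSO final. Agonist mode: compound added directly; antagonist mode: 15 min pre-incubation (or co-application) before carbachol at EC80. Fluorescence recorded 60 s on FLIPR.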
In general terms: Calcium assays in cells follow changes in intracellular calcium, usually with a dye or a luminescent sensor.

In assay [2] the target is T2, M4 muscarinic receptor (Homo sapiens, UniProt P08173).
T2 construct: expressed in transfected cells; host or cells: CHO (M4-CHO)
T2 sequence (P08173 1-479): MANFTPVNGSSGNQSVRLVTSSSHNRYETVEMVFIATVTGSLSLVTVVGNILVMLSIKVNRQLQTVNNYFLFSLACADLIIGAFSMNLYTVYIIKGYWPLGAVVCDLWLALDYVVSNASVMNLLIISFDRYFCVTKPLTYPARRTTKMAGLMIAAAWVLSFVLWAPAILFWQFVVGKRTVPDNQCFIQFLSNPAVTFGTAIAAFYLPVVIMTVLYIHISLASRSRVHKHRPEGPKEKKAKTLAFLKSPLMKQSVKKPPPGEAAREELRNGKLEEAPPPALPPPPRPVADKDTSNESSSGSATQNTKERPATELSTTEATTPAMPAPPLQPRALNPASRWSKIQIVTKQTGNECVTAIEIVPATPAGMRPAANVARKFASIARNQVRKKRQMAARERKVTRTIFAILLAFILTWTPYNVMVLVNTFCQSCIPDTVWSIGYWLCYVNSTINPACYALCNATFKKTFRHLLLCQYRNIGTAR
The assay is described as follows: Functional mobilization of intracellular calcium (FLIPR), M4-CHO cells. It is filed as cell-based. The settings on record: for Emax: 100% efficacy is the maximum response obtained using Carbachol as a control; for M4 Activity: M4-CHO cells, FLIPR calcium mobilization. An outline of the steps: as §1

SMILES strings stand for the structures.

Regarding `CCOC(=O)N1CCC(N2CCC3(CC2)CN(C2CCCCCC2)Cc2ccccc23)CC1` [compound 172, Ethyl 4-(2-cycloheptyl-2,3-dihydro-1H-spiro[isoquinoline-4,4-piperidine]-1′-yl)piperidine-1-carboxylate], the maximal effect (Emax) in assay [1] and in assay [2] was 25 to 100% in each case.

`CCOC(=O)N1CCC(N2CCC3(CC2)CN(S(=O)(=O)N(C)C)Cc2ccccc23)CC1` [compound 176]: in assay [1], the Emax fell in the range of 25 to 100% and the “M1 Activity” value is on record as “+++ (activity was measured to be less than 1.0 μM)”. Moreover, in assay [2], the Emax was 25 to 100% and the “M4 Activity” value is “+++ (activity was measured to be less than 1.0 μM)”.

Consider `CC(=O)N1Cc2ccccc2C2(CCN(C3CCN(C(=O)OC(C)(C)C)CC3)CC2)C1` [compound 177], for which, in assay [1], the Emax lay in the range of 25 to 100% and the “M1 Activity” value is “+++ (activity was measured to be less than 1.0 μM)”. For the same compound, in assay [2], the Emax is < 25% and the “M4 Activity” value is “+ (activity was measured to be greater than 5.0 μM)”.

In the case of `CCOC(=O)N1CCC(N2CCC3(CC2)CN(C(=O)C2(C)CCCCC2)Cc2ccccc23)CC1` [compound 178], in assay [1], the Emax was in the range of 25 to 100% and the “M1 Activity” value is reported as “+++ (activity was measured to be less than 1.0 μM)”. In assay [2], the Emax is < 25% and the “M4 Activity” value is listed as “+ (activity was measured to be greater than 5.0 μM)”.

For the compound `CCOC(=O)N1C2CCC1CC(N1CCC3(CC1)CN(C(=O)c1snnc1C)Cc1ccccc13)C2` (stereo not shown) [compound 179], in assay [1], the Emax is 25 to 100% and the “M1 Activity” value is reported as “+++ (activity was measured to be less than 1.0 μM)”. In addition, in assay [2], the Emax is 25 to 100% and the “M4 Activity” value is on record as “+++ (activity was measured to be less than 1.0 μM)”.

For `Cc1ccc2c(c1)C1(CCN(C3CCOCC3)CC1)OC2=O` [compound 180], in assay [1], the Emax lay in the range of 25 to 100% and the “M1 Activity” value was “+ (activity was measured to be greater than 5.0 μM)”. For the same compound, in assay [2], the Emax was 25 to 100% and the “M4 Activity” value is “+ (activity was measured to be greater than 5.0 μM)”.

As to `CS(=O)(=O)N1Cc2ccccc2C2(CCN(C3CC4CCC(C3)N4C(=O)O[C@H]3CCOC3)CC2)C1` (stereo partly shown) [compound 181], in assay [1], the Emax was in the range of 25 to 100% and the “M1 Activity” value is recorded as “+++ (activity was measured to be less than 1.0 μM)”. Further, in assay [2], the Emax lay within 25 to 100% and the “M4 Activity” value is “+++ (activity was measured to be less than 1.0 μM)”.

Turning to `CC(=O)N1Cc2ccccc2C2(CCN(CC3CCOCC3)CC2)C1` [compound 182], in assay [1], the Emax was < 25% and the “M1 Activity” value is “+ (activity was measured to be greater than 5.0 μM)”. Moreover, in assay [2], the Emax is < 25% and the “M4 Activity” value is given as “+ (activity was measured to be greater than 5.0 μM)”.

Turning to `COCCOC(=O)N1C2CCC1CC(N1CCC3(CC1)CN(C(=O)OC)Cc1ccccc13)C2` (stereo not shown) [compound 183], in assay [1], the Emax is 25 to 100% and the “M1 Activity” value is “+++ (activity was measured to be less than 1.0 μM)”. Besides, in assay [2], the Emax was 25 to 100% and the “M4 Activity” value was “+++ (activity was measured to be less than 1.0 μM)”.

With `CCCC(=O)N1Cc2ccccc2C2(CCN(CC3CCN(C(=O)OCC)CC3)CC2)C1` [compound 184], in assay [1], the Emax fell in the range of 25 to 100% and the “M1 Activity” value was “+++ (activity was measured to be less than 1.0 μM)”. For the same compound, in assay [2], the Emax fell in the range of 25 to 100% and the “M4 Activity” value is reported as “+++ (activity was measured to be less than 1.0 μM)”.

Regarding `CCCC(=O)N1Cc2ccccc2C2(CCN(C3CCN(C(=O)OCC)CC3)CC2)C1` [compound 185], in assay [1], the Emax lay within 25 to 100% and the “M1 Activity” value is reported as “+++ (activity was measured to be less than 1.0 μM)”. Besides, in assay [2], the Emax fell in the range of 25 to 100% and the “M4 Activity” value is recorded as “+++ (activity was measured to be less than 1.0 μM)”.

On to `CCOC(=O)N1CCC(N2CCC3(CC2)CN(C(=O)OCC(C)C)Cc2ccccc23)CC1` [compound 186], for which, in assay [1], the Emax is 25 to 100% and the “M1 Activity” value is recorded as “+++ (activity was measured to be less than 1.0 μM)”. Besides, in assay [2], the Emax fell in the range of 25 to 100% and the “M4 Activity” value is listed as “+++ (activity was measured to be less than 1.0 μM)”.

Regarding `CCC(=O)CN1CCC2(CC1)CN(C(C)=O)Cc1ccccc12` [compound 187], in assay [1], the Emax was < 25% and the “M1 Activity” value is on record as “+ (activity was measured to be greater than 5.0 μM)”. For the same compound, in assay [2], the Emax is < 25% and the “M4 Activity” value is reported as “+ (activity was measured to be greater than 5.0 μM)”.

Regarding `CC(=O)Oc1cccc(CN2CCC3(CC2)CN(C(C)=O)Cc2ccccc23)c1` [compound 188], in assay [1], the Emax was < 25% and the “M1 Activity” value is “+ (activity was measured to be greater than 5.0 μM)”. Besides, in assay [2], the maximal response (Emax) was < 25% and the “M4 Activity” value is reported as “+ (activity was measured to be greater than 5.0 μM)”.

On to `CCCOC(=O)N1C2CCC1CC(N1CCC3(CC1)CN(C(=O)OC1CCC1)Cc1ccccc13)C2` (stereo not shown) [compound 189], for which, in assay [1], the Emax was in the range of 25 to 100% and the “M1 Activity” value is “+++ (activity was measured to be less than 1.0 μM)”. Besides, in assay [2], the Emax fell in the range of 25 to 100% and the “M4 Activity” value was “+++ (activity was measured to be less than 1.0 μM)”.

On to `CCOC(=O)N1C2CCC1CC(N1CCC3(CC1)CN(C(=O)C(O)(CC)CC)Cc1ccccc13)C2` (stereo not shown) [compound 190], for which, in assay [1], the Emax was in the range of 25 to 100% and the “M1 Activity” value is listed as “+++ (activity was measured to be less than 1.0 μM)”. In assay [2], the Emax lay within 25 to 100% and the “M4 Activity” value is recorded as “+++ (activity was measured to be less than 1.0 μM)”.

`CC(=O)N1Cc2ccccc2C2(CCN(Cc3cc4ccccc4s3)CC2)C1` [compound 191]: in assay [1], the Emax is < 25% and the “M1 Activity” value was “+ (activity was measured to be greater than 5.0 μM)”. In assay [2], the Emax was < 25% and the “M4 Activity” value is on record as “+ (activity was measured to be greater than 5.0 μM)”.

Regarding `COc1cccc(OC)c1CN1CCC2(CC1)CN(C(C)=O)Cc1ccccc12` [compound 192], in assay [1], the Emax was 25 to 100% and the “M1 Activity” value was “+ (activity was measured to be greater than 5.0 μM)”. Further, in assay [2], the Emax was 25 to 100% and the “M4 Activity” value is on record as “+ (activity was measured to be greater than 5.0 μM)”.

As to `CCOC(=O)N1C2CCC1CC(N1CCC3(CC1)CN(C(=O)C1CCCCC1)Cc1ccccc13)C2` (stereo not shown) [compound 193], in assay [1], the Emax fell in the range of 25 to 100% and the “M1 Activity” value is reported as “+++ (activity was measured to be less than 1.0 μM)”. In assay [2], the Emax is < 25% and the “M4 Activity” value is “+++ (activity was measured to be less than 1.0 μM)”.

For the compound `O=C(OC1CCC1)N1Cc2ccccc2C2(CCN(C3CC4CCC(C3)N4C(=O)OC3CCC3)CC2)C1` (stereo not shown) [compound 194], in assay [1], the Emax lay within 25 to 100% and the “M1 Activity” value was “+++ (activity was measured to be less than 1.0 μM)”. In addition, in assay [2], the Emax was in the range of 25 to 100% and the “M4 Activity” value is “+++ (activity was measured to be less than 1.0 μM)”.

On to `CC(C)OC(=O)N1Cc2ccccc2C2(CCN(C3CC4CCC(C3)N4C(=O)O[C@@H]3CCOC3)CC2)C1` (stereo partly shown) [compound 195], for which, in assay [1], the Emax was 25 to 100% and the “M1 Activity” value was “+++ (activity was measured to be less than 1.0 μM)”. Further, in assay [2], the Emax fell in the range of 25 to 100% and the “M4 Activity” value was “+++ (activity was measured to be less than 1.0 μM)”.

One may read the Emax as the maximal effect, on the per cent scale that the assay sets.
